# Experiments:
# Assay in all cases: minimal inhibitory concentration, two-fold agar dilution
# Type in all cases: cell-based
# [1] = test system: Enterobacter cloacae ATCC 27508; conditions: ATCC27508, Muller-Hinton agar, 37°C, 20 hours, read-out: MIC values against the standard strains
# Outline: (§1)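 Compounds were serially diluted two-fold into Mueller-Hinton agar, and each plate was spot-inoculated with the test strain at 10⁷ CFU per ml. Plates were incubated at 37°C for 20 hours before MIC values were read.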
# [2] = test system: Morganella morganii ATCC 8076h; conditions: ATCC8076H, Muller-Hinton agar, 37°C, 20 hours, read-out: MIC values against the standard strains
# Outline: as §1
# [3] = test system: Bacillus cereus ATCC 11778; conditions: ATCC11778, Muller-Hinton agar, 37°C, 20 hours, read-out: MIC values against the standard strains
# Outline: as §1
# [4] = test system: Pseudomonas aeruginosa ATCC 25619; conditions: ATCC25619, Muller-Hinton agar, 37°C, 20 hours, read-out: MIC values against the standard strains
# Outline: as §1
# [5] = test system: Providencia rettgeri ATCC 9250; conditions: ATCC9250, Muller-Hinton agar, 37°C, 20 hours, read-out: MIC values against the standard strains
# Outline: as §1
# [6] = test system: Pseudomonas aeruginosa ATCC 10145; conditions: ATCC10145, Muller-Hinton agar, 37°C, 20 hours, read-out: MIC values against the standard strains
# Outline: as §1
# [7] = test system: Shigella flexneri ATCC 11836; conditions: ATCC11836, Muller-Hinton agar, 37°C, 20 hours, read-out: MIC values against the standard strains
# Outline: as §1
# [8] = test system: Staphylococcus aureus ATCC 10537; conditions: ATCC10537, Muller-Hinton agar, 37°C, 20 hours, read-out: MIC values against the standard strains
# Outline: as §1
# [9] = test system: Proteus mirabilis ATCC 25933; conditions: ATCC25933, Muller-Hinton agar, 37°C, 20 hours, read-out: MIC values against the standard strains
# Outline: as §1
# [10] = test system: Streptococcus faecalis ATCC 29212; conditions: Enterococcus faecalis, ATCC29212; Muller-Hinton agar; 37°C; 20 hours; read-out: MIC values against the standard strains
# Outline: as §1
# [11] = test system: Salmonella typhimurium ATCC 14028; conditions: Salmonella enterica; Muller-Hinton agar; 37°C; 20 hours; read-out: MIC values against the standard strains
# Outline: as §1
# [12] = test system: Staphylococcus epidermidis ATCC 12228; conditions: ATCC12228, Muller-Hinton agar, 37°C, 20 hours, read-out: MIC values against the standard strains
# Outline: as §1
# [13] = test system: Staphylococcus aureus ATCC 6538p; conditions: ATCC6538P, Muller-Hinton agar, 37°C, 20 hours, read-out: MIC values against the standard strains
# Outline: as §1
# [14] = test system: Shigella sonnei ATCC 11060; conditions: ATCC11060, Muller-Hinton agar, 37°C, 20 hours, read-out: MIC values against the standard strains
# Outline: as §1
# [15] = test system: Pseudomonas aeruginosa ATCC 27853; conditions: ATCC27853, Muller-Hinton agar, 37°C, 20 hours, read-out: MIC values against the standard strains
# Outline: as §1
# [16] = test system: Proteus vulgaris ATCC 6059; conditions: ATCC6059, Muller-Hinton agar, 37°C, 20 hours, read-out: MIC values against the standard strains
# Outline: as §1
# [17] = test system: Enterobacter aerogenes ATCC 29751; conditions: Klebsiella aerogenes, ATCC29751; Muller-Hinton agar; 37°C; 20 hours; read-out: MIC values against the standard strains
# Outline: as §1
# [18] = test system: Micrococcus luteus ATCC 9341; conditions: ATCC9341, Muller-Hinton agar, 37°C, 20 hours, read-out: MIC values against the standard strains
# Outline: as §1
# [19] = test system: Escherichia coli ATCC 25922; conditions: ATCC25922, Muller-Hinton agar, 37°C, 20 hours, read-out: MIC values against the standard strains
# Outline: as §1
# [20] = test system: Citrobacter freundii ATCC 8090; conditions: ATCC8090, Muller-Hinton agar, 37°C, 20 hours, read-out: MIC values against the standard strains
# Outline: as §1
# [21] = test system: Serratia marcescens ATCC 27117; conditions: ATCC27117, Muller-Hinton agar, 37°C, 20 hours, read-out: MIC values against the standard strains
# Outline: as §1
# [22] = test system: Acinetobacter calcoaceticus ATCC 15437; conditions: ATCC15437, Muller-Hinton agar, 37°C, 20 hours, read-out: MIC values against the standard strains
# Outline: as §1
# [23] = test system: Escherichia coli ATCC 10536; conditions: ATCC10536, Muller-Hinton agar, 37°C, 20 hours, read-out: MIC values against the standard strains
# Outline: as §1
# [24] = test system: Bacillus megaterium ATCC 9885; conditions: Priestia megaterium, ATCC9885; Muller-Hinton agar; 37°C; 20 hours; read-out: MIC values against the standard strains
# Outline: as §1
# [25] = test system: Klebsiella pneumoniae ATCC 10031; conditions: ATCC10031, Muller-Hinton agar, 37°C, 20 hours, read-out: MIC values against the standard strains
# Outline: as §1
Structure (SMILES),MIC [1] [µg/mL],MIC [2] [ng/mL],MIC [3] [µg/mL],MIC [4] [µg/mL],MIC [5] [ng/mL],MIC [6] [µg/mL],MIC [7] [µg/mL],MIC [8] [µg/mL],MIC [9] [µg/mL],MIC [10] [µg/mL],MIC [11] [µg/mL],MIC [12] [µg/mL],MIC [13] [µg/mL],MIC [14] [µg/mL],MIC [15] [µg/mL],MIC [16] [µg/mL],MIC [17] [µg/mL],MIC [18] [µg/mL],MIC [19] [µg/mL],MIC [20] [µg/mL],also measured
C[n+]1c(SCC2=C(C(=O)[O-])N3C(=O)[C@@H](NC(=O)/C(=N\OC(C)(C)C(=O)O)c4csc(N)n4)[C@H]3SC2)nc(N)c(N)c1N [Example 1],0.016,≤ 8,128,1,≤ 8,2,0.031,2,0.063,> 128,0.25,2,8,0.13,1,0.063,2,0.25,0.063,0.13,MIC [21]: 0.25 µg/mL; MIC [22]: 8 µg/mL; MIC [23]: 0.13 µg/mL; MIC [24]: 0.25 µg/mL; MIC [25]: 0.063 µg/mL
"C[n+]1ccc(N)nc1SCC1=C(C(=O)[O-])N2C(=O)[C@@H](NC(=O)/C(=N\OC(C)(C)C(=O)O)c3csc(N)n3)[C@H]2SC1 [Example 2, 7-[(Z)-2-(aminothiazol-4-yl)-2-(carboxyprop-2-oxyimino)acetamido]-3-(4-amino-1-methylpyrimidinium-2-yl)thiomethyl-3-cephem-4-carboxylate]",≤ 0.008,≤ 8,64,1,≤ 8,2,0.016,2,0.031,> 128,0.13,2,4,0.063,1,0.063,1,0.25,0.031,0.031,MIC [21]: 0.063 µg/mL; MIC [22]: 4 µg/mL; MIC [23]: 0.031 µg/mL; MIC [24]: 0.25 µg/mL; MIC [25]: 0.031 µg/mL
"CCO/N=C(\C(=O)N[C@@H]1C(=O)N2C(C(=O)[O-])=C(CSc3nc(N)c(N)c(N)[n+]3C)CS[C@H]12)c1csc(N)n1 [Example 3, 7-[(Z)-2-(aminothiazol-4-yl)-2-(ethoxyimino)acetamido]-3-(4,5,6-triamino-1-methylpyrimidinium-2-yl)thiomethyl-3-cephem-4-carboxylate]",0.016,≤ 8,32,0.5,≤ 8,8,0.063,0.25,0.25,64,0.5,0.13,0.5,0.25,4,0.25,0.5,0.031,0.063,0.063,MIC [21]: 0.25 µg/mL; MIC [22]: 8 µg/mL; MIC [23]: 0.063 µg/mL; MIC [24]: 0.031 µg/mL; MIC [25]: ≤ 0.008 µg/mL
